The source of these data is US8829035B2, “Agent for treatment or prevention of diseases associated with activity of neurotrophic factors” (Sumitomo Chemical Company, Limited, priority 2009, dated 2014).

Counter-ions that a name gives are not always drawn.

In this test the test system is activity of 200 ng/mL of NGF (NXF promoter-driven luciferase in PC12 cells). Kind of test: Luciferase reporter assay (NXF promoter) in PC12 cells: potentiation of NGF activity. The arrangement: key: +: Showed relatively weak potentiation (potentiation only exhibited at 10 μM); ++: Showed potentiation; +++: Showed particularly strong potentiation (2-fold or greater potentiation of the activity of 200 ng/mL of NGF at 1 μM). Format: cell-based, rat. As for the experimental part: The forward primer 5′-[…]-3′ and the reverse primer 5′-[…]-3′ were prepared as the PCR primers according to the sequence information for the NXF gene genome sequence (Accession Nos. AB054577 and NC—000085), and the PCR method was used to isolate from approximately 5 kbp upstream from the translated region of the NXF gene promoter portion to the vicinity of the transcription start site. For this, 1 μg of mouse genomic DNA (Takara) was used as the template, and the 2-step PCR reaction was carried out for 35 cycles, the conditions for which were 95° C./1 m in the denaturing step, and 68° C./8 m in the annealing and extension steps, to obtain the PCR product. The NXF promoter fragment was inserted into the SmaI site of the pGL3 Basic vector (Promega) in the upstream of luciferase gene to prepare a reporter plasmid that would express the luciferase enzyme driven by the NXF promoter.
PC12 cells (available from the ATCC) were cultured using RPMI medium (GIBCO-BRL) with 5% FCS (GIBCO-BR) and 15% horse serum (GIBCO-BRL) added, and 1 mM in sodium pyruvate (GIBCO-BRL), at 37° C. in the presence of 5% CO2. After transfection in 10^6 of these PC12 cells for 2 days with 12 μg of the above-described reporter plasmid and 1 μg of pRC/RSV vector (Invitrogen) using the Lipofectamine 2000 reagent (Invitrogen), the medium was exchanged for fresh medium containing 40 mg/L of geneticin sulfate (GIBCO), and this was cultured continuously. Culturing was continued for approximately 1 month with medium exchange of the cultured medium containing 40 mg/L of geneticin sulfate (GIBCO) every several days, with the result that multiple colonies of the obtained cells were picked up. Among these, one of the colonies that induced luciferase activity in the presence of 40 ng/mL of NGF (Wako Pure Chemicals) was selected and used for the cells to evaluate the activity of the compounds below.
These cells were set up in 96-well plates with 80% confluence, and the luciferase reporter assay was conducted using the Promega Steady Glo luciferase assay kit. The procedure was carried out overnight (approx. 16 hours) using culture medium containing the compound, and the Steady Glo substrate solution was added to the cells in half-diluted in PBS after removal of all remaining medium containing the compound. After this was allowed to stand for 30 minutes, the respective quantity of light produced was measured with a luminometer (Envision Perkin Elmer).
The activity of the compounds for evaluation was measured as the potentiation of the activity of 200 ng/mL of NGF. For the experiment control wells, the negative control well had medium containing only a final concentration of 0.1% DMSO, the positive control well had medium containing a saturation concentration of NGF. In addition, a test well was set up containing 0.1% DMSO with 200 ng/mL of NGF added corresponding to a 0 compound concentration. When its luciferase activity was taken as a standard, the relative luciferase activity could be calculated for the test wells to which the compound solution (dissolved in DMSO and prepared to have a final DMSO concentration of 0.1%) had been added in addition to the 200 ng/mL of NGF, to find the potentiation of the activity of 200 ng/mL of NGF due to that compound.
In general terms: Reporter assays use an easily measured gene product as a stand-in for the process of interest.

Where [1] appears, read: Test Example 1, relative luciferase activity vs 200 ng/mL NGF alone, overnight (approx. 16 hours).
[2] abbreviates: Test Example 4, same manner as Test Example 1, relative luciferase activity vs 200 ng/mL NGF alone.

As for `c1ccc(COCc2nc3cc(-c4nc5ccccc5s4)ccc3n2-c2ccccc2)cc1` [Ex. 1, 5-(benzothiazol-2-yl)-1-phenyl-2-(phenylmethoxy)methylbenzimidazole], under setting [1], the “Activity (potentiation of NGF activity)” value is listed as “+”.
With `COCc1nc2cc(-c3nc4ccccc4s3)ccc2n1C1CCOCC1` [Ex. 6, 5-(benzothiazol-2-yl)-2-methoxymethyl-1-(tetrahydropyran-4-yl)benzimidazole], under setting [1], the “Activity (potentiation of NGF activity)” value is “++”.
Turning to `CN(C)Cc1nc2cc(-c3nc4ccccc4s3)ccc2n1C1CCOCC1` [Ex. 9, 5-(benzothiazol-2-yl)-2-(N,N-dimethylaminomethyl)-1-(tetrahydropyran-4-yl)benzimidazole], under setting [1], the “Activity (potentiation of NGF activity)” value is “++”.
Same read-out and setting: the same measure for `Cc1nc2cc(-c3nc4ccccc4o3)ccc2n1C1CCOCC1` [Ex. 11, 5-(benzoxazol-2-yl)-2-methyl-1-(tetrahydropyran-4-yl)benzimidazole]: “++”.
On to `CN(C)Cc1nc2cc(-c3nc4ccccc4o3)ccc2n1C1CCOCC1` [Ex. 14, 5-(benzoxazol-2-yl)-2-(N,N-dimethylaminomethyl)-1-(tetrahydropyran-4-yl)benzimidazole], for which the “Activity (potentiation of NGF activity)” value under setting [1] is on record as “+”.
For the compound `COc1ccc(-n2c(C)nc3cc(-c4nc5ccccc5o4)ccc32)cc1` [Ex. 15, 5-(benzoxazol-2-yl)-1-(4-methoxyphenyl)-2-methylbenzimidazole], the “Activity (potentiation of NGF activity)” value under setting [1] is recorded as “+”.
For the compound `Cc1nc2cc(-c3nc4ccccc4o3)ccc2n1C1CCCCC1` [Ex. 16, 5-(benzoxazol-2-yl)-1-cyclohexyl-2-methylbenzimidazole], under setting [1], the “Activity (potentiation of NGF activity)” value is on record as “++”.
In the case of `Cc1nc2cc(-c3nc4ccccc4o3)ccc2n1Cc1ccccc1` [Ex. 17, 5-(benzoxazol-2-yl)-1-benzyl-2-methylbenzimidazole], the “Activity (potentiation of NGF activity)” value under setting [1] was “++”.
Take `Cc1nc2cc(-c3cc4ccccc4o3)ccc2n1C1CCOCC1` [Ex. 19, 5-(benzofuran-2-yl)-2-methyl-1-(tetrahydropyran-4-yl)benzimidazole]: under setting [1], the “Activity (potentiation of NGF activity)” value is on record as “++”.
As to `c1ccc(-c2nc3cc(-c4nc5ccccc5o4)ccc3n2C2CCOCC2)nc1` [Ex. 21, 5-(benzoxazol-2-yl)-2-(2-pyridyl)-1-(tetrahydropyran-4-yl)benzimidazole], under setting [1], the “Activity (potentiation of NGF activity)” value was “++”.
As for `c1ccc2oc(-c3ccc4c(c3)nc(C3CCCCC3)n4C3CCOCC3)nc2c1` [Ex. 23, 5-(benzoxazol-2-yl)-2-cyclohexyl-1-(tetrahydropyran-4-yl)benzimidazole], the “Activity (potentiation of NGF activity)” value under setting [1] is listed as “++”.
Turning to `c1cncc(-c2nc3cc(-c4nc5ccccc5o4)ccc3n2C2CCOCC2)c1` [Ex. 24, 5-(benzoxazol-2-yl)-2-(3-pyridyl)-1-(tetrahydropyran-4-yl)benzimidazole], under setting [1], the “Activity (potentiation of NGF activity)” value is given as “++”.
With `c1ccc(-c2nc3cc(-c4nc5ccccc5o4)ccc3n2C2CCOCC2)cc1` [Ex. 25, 5-(benzoxazol-2-yl)-2-phenyl-1-(tetrahydropyran-4-yl)benzimidazole], under setting [1], the “Activity (potentiation of NGF activity)” value is recorded as “++”.
Same read-out and setting: the same measure for `c1ccc2oc(-c3ccc4c(c3)nc(-c3ccncc3)n4C3CCOCC3)nc2c1` [Ex. 26, 5-(benzoxazol-2-yl)-2-(4-pyridyl)-1-(tetrahydropyran-4-yl)benzimidazole]: “++”; for `FC(F)(F)c1nc2cc(-c3nc4ccccc4o3)ccc2n1C1CCOCC1` [Ex. 27, 5-(benzoxazol-2-yl)-1-(tetrahydropyran-4-yl)-2-trifluoromethylbenzimidazole]: “++”.
Turning to `Cc1nc2cc(-c3nc4ccccc4o3)ccc2n1C(C)(C)C` [Ex. 29, 5-(benzoxazol-2-yl)-2-methyl-1-tert-butylbenzimidazole], under setting [1], the “Activity (potentiation of NGF activity)” value was “++”.
For the compound `COc1ccccc1-n1c(C)nc2cc(-c3nc4ccccc4o3)ccc21` [Ex. 30, 5-(benzoxazol-2-yl)-1-(2-methoxyphenyl)-2-methylbenzimidazole], the “Activity (potentiation of NGF activity)” value under setting [1] was “++”.
For the compound `COc1cccc(-n2c(C)nc3cc(-c4nc5ccccc5o4)ccc32)c1` [Ex. 31, 5-(benzoxazol-2-yl)-1-(3-methoxyphenyl)-2-methylbenzimidazole], the “Activity (potentiation of NGF activity)” value under setting [1] is recorded as “++”.
On to `c1ccc(CNCc2nc3cc(-c4nc5ccccc5o4)ccc3n2C2CCOCC2)cc1` [Ex. 32, 5-(benzoxazol-2-yl)-2-benzylaminomethyl-1-(tetrahydropyran-4-yl)benzimidazole], for which the “Activity (potentiation of NGF activity)” value under setting [1] is given as “++”.
On to `CCOC(=O)N1CCC(n2c(C)nc3cc(-c4nc5ccccc5o4)ccc32)CC1` [Ex. 33, 5-(benzoxazol-2-yl)-1-((1-ethoxycarbonyl)piperidine-4-yl)-2-methylbenzimidazole], for which, under setting [1], the “Activity (potentiation of NGF activity)” value is given as “++”.
Take `Cc1nc2cc(-c3nc4ccccc4o3)ccc2n1C1CCNCC1` [Ex. 35, 5-(benzoxazol-2-yl)-1-(piperidine-4-yl)-2-methylbenzimidazole]: under setting [1], the “Activity (potentiation of NGF activity)” value was “++”.
As for `Cc1nc2cc(-c3cc4ccccc4n3C(=O)OC(C)(C)C)ccc2n1C1CCOCC1` [Ex. 37, 5-(N-t-butoxycarbonylindol-2-yl)-2-methyl-1-(tetrahydropyran-4-yl)benzimidazole], the “Activity (potentiation of NGF activity)” value under setting [1] is “++”.
Consider `Cc1nc2cc(-c3cc4ccccc4[nH]3)ccc2n1C1CCOCC1` [Ex. 38, 5-(indol-2-yl)-1-(tetrahydropyran-4-yl)-2-methylbenzimidazole], for which, under setting [1], the “Activity (potentiation of NGF activity)” value is given as “++”.
With `c1ccc2oc(-c3ccc4c(c3)nc(-c3ncc[nH]3)n4C3CCOCC3)nc2c1` [Ex. 44, 5-(benzoxazol-2-yl)-2-(imidazol-2-yl)-1-(tetrahydropyran-4-yl)benzimidazole], under setting [1], the “Activity (potentiation of NGF activity)” value is given as “++”.
Take `Cc1nc2cc(-c3nc4ccccc4o3)ccc2n1CCc1ccccc1` [Ex. 52, 5-(benzoxazol-2-yl)-2-methyl-1-(2-phenylethyl)benzimidazole]: the “Activity (potentiation of NGF activity)” value under setting [2] is reported as “++”.
With `Cc1nc2cc(-c3nc4ccccc4o3)ccc2n1C1CC1` [Ex. 53, 5-(benzoxazol-2-yl)-2-methyl-1-cyclopropylbenzimidazole], the “Activity (potentiation of NGF activity)” value under setting [2] is “++”.
Turning to `Cc1nc2cc(-c3nc4ccccc4o3)ccc2n1CCNC(=O)OC(C)(C)C` [Ex. 55, 5-(benzoxazol-2-yl)-1-(2-(tert-butoxycarbonylamino)ethyl)-2-methylbenzimidazole], the “Activity (potentiation of NGF activity)” value under setting [2] is given as “++”.
As for `Cc1nc2cc(-c3nc4ccccc4o3)ccc2n1CCN` [Ex. 56, 1-(2-aminoethyl)-5-(benzoxazol-2-yl)-2-methylbenzimidazole hydrochloride], under setting [2], the “Activity (potentiation of NGF activity)” value is “++”.
With `CC(C)(C)OC(=O)NCc1nc2cc(-c3nc4ccccc4o3)ccc2n1C1CCOCC1` [Ex. 58, 5-(benzoxazol-2-yl)-2-(tert-butoxycarbamidomethyl)-1-(tetrahydropyran-4-yl)benzimidazole], under setting [2], the “Activity (potentiation of NGF activity)” value was “++”.
Take `Cc1nc2cc(-c3nc4cc([N+](=O)[O-])ccc4o3)ccc2n1C1CCOCC1` [Ex. 60, 5-(5-nitrobenzoxazol-2-yl)-2-methyl-1-(tetrahydropyran-4-yl)benzimidazole]: the “Activity (potentiation of NGF activity)” value under setting [2] is recorded as “++”.
`c1ccc(Cc2nc3cc(-c4nc5ccccc5o4)ccc3n2C2CCOCC2)cc1` [Ex. 61, 5-(benzoxazol-2-yl)-2-benzyl-1-(tetrahydropyran-4-yl)benzimidazole]: the “Activity (potentiation of NGF activity)” value under setting [2] is reported as “++”.
Consider `C(=C\c1nc2cc(-c3nc4ccccc4o3)ccc2n1C1CCOCC1)/c1ccccc1` [Ex. 62, 5-(benzoxazol-2-yl)-2-trans-cinnam-1-(tetrahydropyran-4-yl)benzimidazole], for which the “Activity (potentiation of NGF activity)” value under setting [2] is on record as “++”.
